The text below walks through data of patent US20240239798A1, “SALTS AND POLYMORPHS OF M[…] 3-DEUTEROMITRAGYNINE” (priority 2021, published 2024).

Values after ≈ are worked out from the molar mass of the structure shown. Structures can show the parent of a compound that is named as a salt. Where two headings read alike, the source gives them in different places.

The conditions of data set [1]: Batch 810081-28-B.
For data set [2] the following is noted: cited from earlier work.
A short description of data set [3]: Solubility of 3-DM free base and 3-DM Glycolate Type A in IPA and IPA/H2O (19:1, v/v) at 5, 20, 40, 60° C., 24 hrs. Format: physicochemical.
Data set [4] is classed as physicochemical. The settings on record: for solubility: organic solvent or mixture, read-out: Approximate solubility. How it is done:
In the first batch (100 mg scale), pure IPA was used as solvent. […] Detailed preparation procedures for the 3 scaled-up batches can be found below.

Data set [5] in a line: Approximate solubility of amorphous 3-DM free base starting material in 27 solvent systems at RT. Format: physicochemical. On the procedure:
The approximate solubility of the free base starting material was determined in 27 solvent systems at RT. Approximate 2 mg of material was added into a 3-mL glass vial. […] The solubility results summarized in Table 10 were used to guide the solvent selection in salt screening design.

Data set [6] is described as follows: Background statements on solubility and gel formation in aqueous solution. Type of data set: physicochemical.

In data set [1] (sonication time 0 s), `O=C(O)CO.[2H]C12CC(C(=COC)C(=O)OC)C(CC)CN1CCc1c2[nH]c2cccc(OC)c12` (centres unmarked) gave a D10 of 7.51 μm, a D50 of 19.96 μm, a D90 of 58.66 μm and an MV of 28.68 μm. Moreover, in data set [1] (sonication time 30 s (30 Watt)), the D10 was found to be 5.92 μm, the D50 is 15.93 μm, the D90 is recorded as 47.05 μm and the MV turned out to be 22.77 μm.

Turning to `CC[C@@H]1CN2CCc3c([nH]c4cccc(OC)c34)[C@H]2C[C@@H]1/C(=C\OC)C(=O)OC` (stereo in doubt) [mitragynine hydrochloride], the “Behaviour in aqueous solution” value in data set [2] (aqueous solution) is recorded as “form a gel”.

Take `[2H]C12CC(C(=COC)C(=O)OC)C(CC)CN1CCc1c2[nH]c2cccc(OC)c12` (centres unmarked) [3-DM Free Base Type A]: the “Solubility in IPA/H2O (19:1, v/v) compared with IPA” value in data set [3] is given as “higher than IPA”. The equilibrium solubility in data set [3] (IPA/H2O (19:1, v/v) at 60° C.) was found to be 73.94 mg/mL.

With `O=C(O)CO.[2H][C@@]12C[C@H](/C(=C\OC)C(=O)OC)[C@H](CC)CN1CCc1c2[nH]c2cccc(OC)c12` [3-DM Glycolate], the “Results (forms obtained)” value (Grind, 4 experiments) is “Glycolate Type A”; the “Results (forms obtained)” value (Liquid-vapor diffusion, 12 experiments) is “Glycolate Type A, B, D, A + C”; the “Results (forms obtained)” value (Slow cooling, 6 experiments) is “Glycolate Type A, B, C”; the “Results (forms obtained)” value (Slow evaporation, 7 experiments) is listed as “Glycolate Type A, C, E”; the “Results (forms obtained)” value (Slurry at 50° C., 16 experiments) is on record as “Glycolate Type A, C”; the “Results (forms obtained)” value (Slurry at RT, 25 experiments) is “Glycolate Type A”. In addition, where the note is “Solid vapor diffusion, 12 experiments”, the “Results (forms obtained)” value is listed as “Glycolate Type A, C”.

Take `[2H][C@@]12C[C@H](/C(=C\OC)C(=O)OC)[C@H](CC)CN1CCc1c2[nH]c2cccc(OC)c12` [3-DM free base, 3-deuteromitragynine]: the solubility (commonly the dissolved amount per volume that the medium holds) in data set [4] (EtOAc) is more than 40 mg/mL; in data set [4] (EtOH), more than 38 mg/mL; in data set [4] (IPA), more than 36 mg/mL; in data set [4] (MeOH), more than 46 mg/mL; in data set [4] (acetone) it was more than 38 mg/mL; in data set [4] (acetone/n-heptane (1:1) v/v), more than 42 mg/mL. For the same molecule, the solubility is more than 42 mg/mL in data set [5] (organic solvent or mixture, thermodynamic from solid, 1,4-dioxane, RT); more than 48 mg/mL in data set [5] (organic solvent or mixture, thermodynamic from solid, 2-MeTHF, RT); more than 46 mg/mL in data set [5] (organic solvent or mixture, thermodynamic from solid, ACN, RT); more than 38 mg/mL in data set [5] (organic solvent or mixture, thermodynamic from solid, Acetone, RT); more than 38 mg/mL in data set [5] (organic solvent or mixture, thermodynamic from solid, Acetone/n-Heptane (1:1), RT); more than 46 mg/mL in data set [5] (organic solvent or mixture, thermodynamic from solid, Acetone/n-Heptane (1:4), RT). The solubility was 7.7 to 23 mg/mL (≈ 19.3 to 57.6 mM) in data set [5] (organic solvent or mixture, thermodynamic from solid, Acetone/n-Heptane (1:9), RT); 4 to 6.7 mg/mL (≈ 10 to 16.8 mM) in data set [5] (organic solvent or mixture, thermodynamic from solid, Acetone/n-Heptane (1:15), RT); more than 42 mg/mL in data set [5] (organic solvent or mixture, thermodynamic from solid, Acetone/n-Heptane (4:1), RT); more than 46 mg/mL in data set [5] (organic solvent or mixture, thermodynamic from solid, CHCl3, RT); more than 42 mg/mL in data set [5] (organic solvent or mixture, thermodynamic from solid, DCM, RT); more than 46 mg/mL in data set [5] (organic solvent or mixture, thermodynamic from solid, DMAc, RT). Also, the solubility was more than 34 mg/mL in data set [5] (organic solvent or mixture, thermodynamic from solid, DMSO, RT); more than 40 mg/mL in data set [5] (organic solvent or mixture, thermodynamic from solid, EtOAc, RT); more than 38 mg/mL in data set [5] (organic solvent or mixture, thermodynamic from solid, EtOH, RT); more than 36 mg/mL in data set [5] (organic solvent or mixture, thermodynamic from solid, IPA, RT); 7 to 21 mg/mL (≈ 17.5 to 52.6 mM) in data set [5] (organic solvent or mixture, thermodynamic from solid, IPA/H2O (4:1), RT); 23 to 46 mg/mL (≈ 57.6 to 115 mM) in data set [5] (organic solvent or mixture, thermodynamic from solid, IPA/H2O (9:1), RT). Besides, the solubility in data set [5] (organic solvent or mixture, thermodynamic from solid, IPAc, RT) is more than 42 mg/mL; in data set [5] (organic solvent or mixture, thermodynamic from solid, MIBK, RT), more than 40 mg/mL; in data set [5] (organic solvent or mixture, thermodynamic from solid, MTBE, RT), more than 46 mg/mL; in data set [5] (organic solvent or mixture, thermodynamic from solid, MeOH, RT), more than 46 mg/mL; in data set [5] (organic solvent or mixture, thermodynamic from solid, NMP, RT) it was more than 44 mg/mL; in data set [5] (organic solvent or mixture, thermodynamic from solid, THF, RT), more than 40 mg/mL. The solubility is more than 36 mg/mL in data set [5] (organic solvent or mixture, thermodynamic from solid, Toluene, RT); less than 2.3 mg/mL in data set [5] (organic solvent or mixture, thermodynamic from solid, n-Heptane, RT); less than 2.3 mg/mL in data set [5] (water, thermodynamic from solid, H2O, RT). Also, the “Solubility in IPA (in words)” value in data set [4] (IPA, approximate) is listed as “high solubility”. Besides, the “Solubility compared with Glycolate Type A” value in data set [3] (IPA and IPA/H2O (19:1, v/v), each temperature (5-60° C.)) is listed as “much higher than that of Glycolate Type A”.

Turning to `Cl.[2H]C12CC(C(=COC)C(=O)OC)C(CC)CN1CCc1c2[nH]c2cccc(OC)c12` (centres unmarked) [3-DM hydrochloride salt], the “Behaviour in aqueous solution” value in data set [6] is listed as “forms a gel”.

As to `CC[C@@H]1CN2CCc3c([nH]c4cccc(OC)c34)[C@@H]2C[C@@H]1/C(=C\OC)C(=O)OC` [Mitragynine], the “Solubility in conventional organic solvents (in words)” value in data set [2] (acetone, acetic acid, alcohols, chloroform and diethyl ether) is “soluble”. The “Solubility in water (in words)” value in data set [2] (water) was “insoluble”.
